pIC50: −log10 of the molar value.
Key:
[1] = biological target: HPK1 kinase (aa1-346, Life Technologies) (Homo sapiens (Human), UniProt Q92918); assay: HPK Kinase Activity Assay at 1 mM ATP (TR-FRET); format: biochemical; details: HPK1 kinase 40 nM, 0.5 μM STK1 substrate, read-out: Enzymatic activity IC50
[2] = tested on: pSLP76(S376) level in Jurkat cell line; assay: Cellular pSLP76(S376) HTRF Assay; format: cell-based; details: Homo sapiens, Jurkat cells, 2 h compound treatment, 0.05 μg/mL anti-human CD3 (OKT3) 30 min

HPK1 kinase (aa1-346, Life Technologies), sequence (Q92918 1-346): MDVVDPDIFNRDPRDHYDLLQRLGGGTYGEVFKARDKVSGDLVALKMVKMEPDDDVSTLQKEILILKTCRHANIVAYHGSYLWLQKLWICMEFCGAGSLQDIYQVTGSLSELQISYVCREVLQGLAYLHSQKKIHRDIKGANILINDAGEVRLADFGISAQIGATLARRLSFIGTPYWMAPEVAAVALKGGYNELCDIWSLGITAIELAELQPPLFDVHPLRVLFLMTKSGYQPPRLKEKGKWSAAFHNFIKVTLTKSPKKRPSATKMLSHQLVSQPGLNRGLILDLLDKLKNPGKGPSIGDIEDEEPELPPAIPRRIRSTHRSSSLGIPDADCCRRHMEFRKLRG

Row | pIC50 [1] | pIC50 [2] | Compound
1 | 7.36 | – | C[C@@H]1COCCN1c1cc(-c2cnc(N)c(Oc3cnn(C4CCN(C)CC4)c3)n2)cc([C@@]2(O)CCO[C@@H]2C)c1 (single isomer, unassigned) [Example A95A]
2 | 8.35 | 7.17 | C[C@@H]1COCCN1c1cc(-c2cnc(N)c(Oc3cnn(C4CCN(C)CC4)c3)n2)cc([C@]2(O)CCO[C@H]2C)c1 (single isomer, unassigned) [Example A95B]

Reference: patent US20250236610A1, “3-[(1H-PYRAZOL-4-YL)OXY]PYRAZIN-2-AMINE COMPOUNDS AS HPK1 INHIBITOR AND USE THEREOF” (BeiGene, Ltd., priority 2020, published 2025)
